This experiment concerns model rat of the present invention (13LK freely fed). The experiment is described as follows: Alkalizing agent (citrate or sodium bicarbonate) given to the 13LK-fed model rat: urine pH and urinary corticosterone excretion (Example 3). The class given is in vivo. The following applies: 13LK model rat, 1 week, n = 8; for Urine pH: 13LK control 5.7 ± 0.2; for Urine corticosterone: 13LK control 486 ± 115. On the procedure:
Citrate or sodium bicarbonate was administered as an alkalizing agent using the model rat of the present invention prepared in Example 1 (13LK was freely fed as a feed for one week), and the results of confirming urine pH and urinary glucocorticoid (corticosterone) excretion are shown in Table 3. Urine pH increased and corticosterone excretion decreased in both the citrate administration group and the sodium bicarbonate administration group as compared to the control group.

Molecules are shown by their SMILES.

For `O=C([O-])O.[Na+]` [NaHCO3, sodium bicarbonate], the “Urine pH” value came out at 6.8 ± 0.6 and the Urine corticosterone is recorded as 309 ± 116 ng/day. For the same compound, for the setting “listed as sodium bicarbonate”, the “Urine pH” value is reported as “increased” and the Urine corticosterone entry was “decreased”.

Source of the values: patent US20210196747A1, “METABOLISM IMPROVING AGENT” (University of the Ryukyus, priority 2018, published 2021).
